Here are results for eight compounds from patent US20220248678A1, “HERBICIDAL COMPOUNDS” (SYNGENTA CROP PROTECTION AG, priority 2019, published 2022).

Experiment in all cases: Post-emergence efficacy, glasshouse
Holding throughout (assay type): in vivo
Conditions in all cases: after 13 days, 100=total damage to plant, 0=no damage to plant

For one assay, the system named is Lolium perenne (LOLPE). As for the experimental part:
(§1) Seeds of a variety of test species were shown in standard soil in pots. After cultivation for 14 days (post-emergence) under controlled conditions in a glasshouse (at 24/16° C., day/night; 14 hours light; 65% humidity), the plants were sprayed with an aqueous spray solution derived from the dissolution of the technical active ingredient for each of compounds 1 to 26 from Table A above, in a small amount of acetone and a special solvent and emulsifier mixture referred to as IF50 (11.12% Emulsogen EL360 TM+44.44% N-methylpyrrolidone+44.44% Dowanol DPM glycol ether), to create a 50 g/I solution which was then diluted to required concentration using 0.25% or 1% Empicol ESC70 (Sodium lauryl ether sulphate)+1% ammonium sulphate in water as diluent. These spray test compositions are described as composition numbers C1 to C26, with the numerical value corresponding to the compound number from Table A.
(§2) The test plants were then grown in a glasshouse under controlled conditions (at 24/16° C., day/night; 14 hours light; 65% humidity) and watered twice daily. After 13 days the test was evaluated (100=total damage to plant; 0=no damage to plant).
(§3) Ipomoea hederacea (IPOHE), Euphorbia heterophylla (EPHHL), Chenopodium album (CHEAL), Amaranthus palmeri (AMAPA), Lolium perenne (LOLPE), Digitaria sanguinalis (DIGSA), Eleusine indica (ELEIN), Echinochloa crus-galli (ECHCG), Setaria faberi (SETFA)

The subject of assay [1] is Echinochloa crus-galli (ECHCG). As for the experimental part: as §1, §2, §3
For the next assay, the system named is Eleusine indica (ELEIN). As for the experimental part: as §1, §2, §3
Assay [2] deals with Chenopodium album (CHEAL). As for the experimental part:
as §1, §2, §3

In assay [3] the test system is Digitaria sanguinalis (DIGSA). As for the experimental part:
as §1, §2, §3

The test system of another assay is Setaria faberi (SETFA). As for the experimental part:
as §1, §2, §3

For assay [4], the system named is Amaranthus palmeri (AMAPA). As for the experimental part: as §1, §2, §3
Assay [5] relates to Ipomoea hederacea (IPOHE). As for the experimental part: as §1, §2, §3
Assay [6] relates to Euphorbia heterophylla (EPHHL). As for the experimental part:
as §1, §2, §3

Each structure is given as a SMILES string.

As for `COP(=O)([O-])c1c[n+](C)nc2cc(C(F)(F)F)ccc12` [Composition C20], the “Control of weed species LOLPE” value in the assay on Lolium perenne (LOLPE) (1000 g/Ha) turned out to be 10. In addition, the “Control of weed species ECHCG” value in assay [1] (1000 g/Ha) is listed as 10. The “Control of weed species ELEIN” value in the assay with Eleusine indica (ELEIN) (1000 g/Ha) was determined as 10. Also, the “Control of weed species CHEAL” value in assay [2] (1000 g/Ha) is on record as 40. Further, the “Control of weed species DIGSA” value in [3] (1000 g/Ha) is listed as 20. For the same compound, in the assay on Setaria faberi (SETFA) (1000 g/Ha), the “Control of weed species SETFA” value was 10. The “Control of weed species AMAPA” value in assay [4] (1000 g/Ha) was found to be 40. For the same compound, the “Control of weed species IPOHE” value in [5] (1000 g/Ha) was 60. Also, the “Control of weed species EPHHL” value in [6] (1000 g/Ha) came out at 30.

For the compound `C#CCOP(=O)([O-])c1c[n+](C)nc2ccccc12` [Composition C4], in the assay on Lolium perenne (LOLPE) (1000 g/Ha), the “Control of weed species LOLPE” value is listed as 90. Besides, the “Control of weed species ECHCG” value in assay [1] (1000 g/Ha) was 90. For the same compound, the “Control of weed species ELEIN” value in the assay on Eleusine indica (ELEIN) (1000 g/Ha) is listed as 100. Also, the “Control of weed species CHEAL” value in [2] (1000 g/Ha) amounted to 100. Also, in assay [3] (1000 g/Ha), the “Control of weed species DIGSA” value was 100. Besides, the “Control of weed species SETFA” value with Setaria faberi (SETFA) (1000 g/Ha) turned out to be 100. In addition, the “Control of weed species AMAPA” value in [4] (1000 g/Ha) stood at 100. Besides, the “Control of weed species IPOHE” value in assay [5] (1000 g/Ha) is 100. In addition, in [6] (1000 g/Ha), the “Control of weed species EPHHL” value was 100.

Consider `COc1ccc2n[n+](C)cc(P(=O)([O-])OC)c2c1` [Composition C16], for which, in the assay on Lolium perenne (LOLPE) (1000 g/Ha), the “Control of weed species LOLPE” value was found to be 50. The “Control of weed species ECHCG” value in assay [1] (1000 g/Ha) is listed as 90. The “Control of weed species ELEIN” value with Eleusine indica (ELEIN) (1000 g/Ha) worked out at 100. Further, the “Control of weed species CHEAL” value in assay [2] (1000 g/Ha) turned out to be 90. The “Control of weed species DIGSA” value in assay [3] (1000 g/Ha) came to 80. Besides, in the assay with Setaria faberi (SETFA) (1000 g/Ha), the “Control of weed species SETFA” value was 80. Besides, the “Control of weed species AMAPA” value in assay [4] (1000 g/Ha) was 100. Also, the “Control of weed species IPOHE” value in [5] (1000 g/Ha) stood at 70. Further, the “Control of weed species EPHHL” value in assay [6] (1000 g/Ha) amounted to 90.

Regarding `COP(=O)([O-])c1c[n+](C)nc2ccccc12` [Composition C27], the “Control of weed species LOLPE” value in the assay with Lolium perenne (LOLPE) (500 g/Ha) worked out at 90. Besides, in assay [1] (500 g/Ha), the “Control of weed species ECHCG” value turned out to be 100. Moreover, the “Control of weed species ELEIN” value in the assay on Eleusine indica (ELEIN) (500 g/Ha) is on record as 100. Further, the “Control of weed species CHEAL” value in [2] (500 g/Ha) turned out to be 100. Moreover, the “Control of weed species DIGSA” value in assay [3] (500 g/Ha) was 100. In the assay on Setaria faberi (SETFA) (500 g/Ha), the “Control of weed species SETFA” value was determined as 100. Further, the “Control of weed species AMAPA” value in [4] (500 g/Ha) turned out to be 100. In assay [5] (500 g/Ha), the “Control of weed species IPOHE” value was determined as 90. The “Control of weed species EPHHL” value in assay [6] (500 g/Ha) was 100.

As for `CCCCOP(=O)([O-])c1c[n+](C)nc2ccccc12` [Composition C12], in the assay with Lolium perenne (LOLPE) (500 g/Ha), the “Control of weed species LOLPE” value was 40. Further, the “Control of weed species ECHCG” value in [1] (500 g/Ha) is 70. For the same compound, the “Control of weed species ELEIN” value in the assay on Eleusine indica (ELEIN) (500 g/Ha) stood at 100. For the same compound, the “Control of weed species CHEAL” value in assay [2] (500 g/Ha) is on record as 100. Moreover, the “Control of weed species DIGSA” value in assay [3] (500 g/Ha) is recorded as 70. Moreover, the “Control of weed species SETFA” value with Setaria faberi (SETFA) (500 g/Ha) was found to be 70. In [4] (500 g/Ha), the “Control of weed species AMAPA” value was found to be 100. Further, the “Control of weed species IPOHE” value in assay [5] (500 g/Ha) amounted to 100. Also, the “Control of weed species EPHHL” value in assay [6] (500 g/Ha) came to 100.

Turning to `COCCOP(=O)([O-])c1c[n+](C)nc2ccccc12` [Composition C10], the “Control of weed species LOLPE” value in the assay on Lolium perenne (LOLPE) (1000 g/Ha) is 20. The “Control of weed species ECHCG” value in assay [1] (1000 g/Ha) is recorded as 70. Also, in the assay on Eleusine indica (ELEIN) (1000 g/Ha), the “Control of weed species ELEIN” value is 100. Also, the “Control of weed species CHEAL” value in assay [2] (1000 g/Ha) amounted to 100. Moreover, the “Control of weed species DIGSA” value in assay [3] (1000 g/Ha) was 90. Besides, the “Control of weed species SETFA” value with Setaria faberi (SETFA) (1000 g/Ha) is 100. Further, the “Control of weed species AMAPA” value in [4] (1000 g/Ha) was 100. The “Control of weed species IPOHE” value in assay [5] (1000 g/Ha) turned out to be 80. Moreover, in [6] (1000 g/Ha), the “Control of weed species EPHHL” value was determined as 100.

For the compound `COc1cccc2c(P(=O)([O-])OC)c[n+](C)nc12` [Composition C18], the “Control of weed species LOLPE” value in the assay with Lolium perenne (LOLPE) (1000 g/Ha) is reported as 80. Moreover, the “Control of weed species ECHCG” value in assay [1] (1000 g/Ha) was found to be 100. The “Control of weed species ELEIN” value with Eleusine indica (ELEIN) (1000 g/Ha) came out at 100. Further, the “Control of weed species CHEAL” value in assay [2] (1000 g/Ha) is 80. For the same compound, the “Control of weed species DIGSA” value in [3] (1000 g/Ha) is 100. In addition, the “Control of weed species SETFA” value with Setaria faberi (SETFA) (1000 g/Ha) is listed as 100. Also, the “Control of weed species AMAPA” value in assay [4] (1000 g/Ha) was 100. Also, the “Control of weed species IPOHE” value in assay [5] (1000 g/Ha) worked out at 80. Besides, the “Control of weed species EPHHL” value in [6] (1000 g/Ha) amounted to 100.

For `COP(=O)([O-])c1c[n+](C)nc2c(C)cccc12` [Composition C15], the “Control of weed species LOLPE” value in the assay with Lolium perenne (LOLPE) (1000 g/Ha) was found to be 20. In addition, the “Control of weed species ECHCG” value in assay [1] (1000 g/Ha) was 50. Further, the “Control of weed species ELEIN” value in the assay with Eleusine indica (ELEIN) (1000 g/Ha) is listed as 80. For the same compound, the “Control of weed species CHEAL” value in assay [2] (1000 g/Ha) is on record as 50. For the same compound, in [3] (1000 g/Ha), the “Control of weed species DIGSA” value was determined as 70. The “Control of weed species SETFA” value in the assay with Setaria faberi (SETFA) (1000 g/Ha) is 50. In assay [4] (1000 g/Ha), the “Control of weed species AMAPA” value is given as 40. Further, the “Control of weed species IPOHE” value in assay [5] (1000 g/Ha) is recorded as 20. Also, the “Control of weed species EPHHL” value in assay [6] (1000 g/Ha) stood at 100.
